Results reported in article PMC6539495, “Anti-Cancer Activity of Novel Dihydrotestosterone-Derived Ring A-Condensed Pyrazoles on Androgen Non-Responsive Prostate Cancer Cell Lines” (International Journal of Molecular Sciences, 2019).

Columns and labels:
[1] = test system: PC-3 cells; test: MTT cell viability assay on PC-3 prostate cancer cells; assay type: cell-based, human; settings: for antiproliferative potency against PC-3 prostate cancer cells compared to MRC-5 non-cancerous fibroblasts: primary screen
Protocol: (§1) HeLa, MCF-7 and MDA-MB-231 cells were obtained from Sigma-Aldrich and maintained as reported previously. MRC-5, PC-3, DU 145 cells were purchased from American Type Culture Collection (ATCC, Manassas, VA, USA). PC-3 and DU 145 were maintained in RPMI medium (Sigma-Aldrich) whereas MRC-5 cells were maintained in DMEM medium (Sigma-Aldrich). All media were complemented with 10% Fetal bovine serum (FBS, Sigma-Aldrich) 2 mM L-glutamine, 0.01% streptomycin and 0.005% ampicillin (Sigma-Aldrich). Cells were cultured under standard conditions in a 37 °C incubator containing 5% CO2 in 95% humidity.
(§2) Each test compound was dissolved in cell culture grade DMSO (Molar Chemicals, Halásztelek, Hungary) in a final concentration of […]. Antiproliferative action of the synthesized steroids was investigated by MTT assay. An amount of 5000 cells/well were seeded into 96 well plates. Twenty-four hours post seeding, all cell lines were treated with each compound in 10 and 30 μM concentrations for 72 hours. […] After 72 hours, cells were washed with PBS and incubated with culture medium containing 0.5 mg/mL MTT (3-(4, 5-dimethylthiazolyl-2)-2,5-diphenyltetrazolium bromide) reagent (SERVA, GmbH, Heidelberg, Germany) for an hour at 37 °C. Formazan crystals were solubilized in DMSO and extinction was measured at 570 nm using a Synergy HTX plate reader (BioTech-Hungary, Budapest, Hungary). MTT assays were performed at least three times using four independent biological replicates. Data were normalized to solvent controls and the graphical representation of the obtained data as well as the calculation of IC50 values were carried out by GraphPad Prism 7 software (GraphPad Software; San Diego, CA, USA).

[2] = test system: MDA-MB-231 cells; test: MTT cell viability assay on MDA-MB-231 breast cancer cells; assay type: cell-based, human; settings: 72 hours
Protocol: as §1, §2

[3] = test system: HeLa cells; test: MTT cell viability assay on HeLa cervical cancer cells; assay type: cell-based, human; settings: 72 hours
Protocol: as §1, §2

[4] = test system: MCF-7 cells; test: MTT cell viability assay on MCF-7 breast cancer cells; assay type: cell-based, human; settings: 72 hours
Protocol: as §1, §2

[5] = test system: DU 145 cells; test: MTT cell viability assay on DU 145 prostate cancer cells; assay type: cell-based, human; settings: 72 hours
Protocol: as §1, §2

[6] = test system: MRC-5 cells; test: MTT cell viability assay on non-cancerous MRC-5 fibroblasts; assay type: cell-based; settings: 72 hours, MTT
Protocol: as §1, §2

| Compound | Mean values (%) of primary growth inhibitory screen (viability in %), PC-3 ([1]; 10 µM, 72 hours, MTT) | Mean values (%) of primary growth inhibitory screen (viability in %), PC-3 ([1]; 30 µM, 72 hours, MTT) | Mean values (%) of primary growth inhibitory screen (viability in %), MDA-MB-231 ([2]; 10 µM) | Mean values (%) of primary growth inhibitory screen (viability in %), MDA-MB-231 ([2]; 30 µM) | Mean values (%) of primary growth inhibitory screen (viability in %), HeLa ([3]; 10 µM) | Mean values (%) of primary growth inhibitory screen (viability in %), HeLa ([3]; 30 µM) | Mean values (%) of primary growth inhibitory screen (viability in %), MCF-7 ([4]; 10 µM) | Mean values (%) of primary growth inhibitory screen (viability in %), MCF-7 ([4]; 30 µM) | Mean values (%) of primary growth inhibitory screen (viability in %), DU 145 ([5]; 10 µM) | Mean values (%) of primary growth inhibitory screen (viability in %), DU 145 ([5]; 30 µM) | Mean values (%) of primary growth inhibitory screen (viability in %), MRC-5 ([6]; 10 µM) | Mean values (%) of primary growth inhibitory screen (viability in %), MRC-5 ([6]; 30 µM) | antiproliferative potency against PC-3 prostate cancer cells compared to MRC-5 non-cancerous fibroblasts ([1]; 30 µM) | antiproliferative potency against PC-3 prostate cancer cells compared to MRC-5 non-cancerous fibroblasts ([1]; 10 µM) | IC50 ([1]; MTT, 72 hours, ± SD) | IC50 ([2]; ± SD) | IC50 ([3]; ± SD) | IC50 ([4]; ± SD) | IC50 ([5]; ± SD) | IC50 ([6]; ± SD) |
| --- | --- | --- | --- | --- | --- | --- | --- | --- | --- | --- | --- | --- | --- | --- | --- | --- | --- | --- | --- | --- |
| Cc1ccc(-n2nc3c(c2C)CC2(C)C(CCC4C5CCC(=O)C5(C)CCC42)C3)cc1 (stereo not drawn) [5c, 1′-(4″-Tolyl)-5′-methylpyrazolo[3′,4′:3,2]-5α-androst-17-one] | 68.1% | 43.6% | 78.7% | 66.2% | 46.3% | 38.5% | 63.6% | 48.7% | 86.3% | 51.1% | 89.1% | 62.5% | – | – | – | – | – | – | – | – |
| Cc1ccc(-n2nc3c(c2C)C[C@@]2(C)[C@@H](CC[C@@H]4[C@@H]2CC[C@]2(C)C(=O)CC[C@@H]42)C3)c(C)c1 [5d, 1′-(2″,4″-Dimethylphenyl)-5′-methylpyrazolo[3′,4′:3,2]-5α-androst-17-one] | 52.1% | 14.6% | 77.2% | 54.1% | 39.5% | 30.7% | 56.3% | 13.3% | 65.6% | 10.0% | 80.1% | 21.3% | – | – | – | – | – | – | – | – |
| COc1ccc(-n2nc3c(c2C)C[C@@]2(C)[C@@H](CC[C@@H]4[C@@H]2CC[C@]2(C)C(=O)CC[C@@H]42)C3)cc1 [5e, 1′-(4″-Methoxyphenyl)-5′-methylpyrazolo[3′,4′:3,2]-5α-androst-17-one] | 45.5% | 29.7% | 72.0% | 61.5% | 38.4% | 41.8% | 53.5% | 36.3% | 62.1% | 48.1% | 79.3% | 79.3% | significantly higher | – | – | – | – | – | – | – |
| Cc1c2c(nn1-c1ccc(F)cc1)C[C@@H]1CC[C@@H]3[C@H](CC[C@]4(C)C(=O)CC[C@@H]34)[C@@]1(C)C2 [5f, 1′-(4″-Fluorophenyl)-5′-methylpyrazolo[3′,4′:3,2]-5α-androst-17-one] | 54.3% | 17.6% | 82.3% | 66.0% | 40.5% | 50.5% | 72.6% | 30.6% | 74.9% | 50.7% | 83.9% | 66.1% | significantly higher | significantly higher | – | – | – | – | – | – |
| Cc1c2c(nn1-c1ccc(Cl)cc1)C[C@@H]1CC[C@@H]3[C@H](CC[C@]4(C)C(=O)CC[C@@H]34)[C@@]1(C)C2 [5g, 1′-(4″-Chlorophenyl)-5′-methylpyrazolo[3′,4′:3,2]-5α-androst-17-one] | 54.7% | 11.8% | 65.7% | 65.1% | 38.7% | 39.0% | 56.3% | 28.0% | 73.7% | 23.2% | 94.4% | 18.1% | – | significantly higher | – | – | – | – | – | – |
| Cc1c2c(nn1-c1ccc(C#N)cc1)C[C@@H]1CC[C@@H]3[C@H](CC[C@]4(C)C(=O)CC[C@@H]34)[C@@]1(C)C2 [5i, 1′-(4″-Cyanophenyl)-5′-methylpyrazolo[3′,4′:3,2]-5α-androst-17-one] | 56.2% | 70.0% | 70.6% | 59.7% | 42.2% | 36.4% | 53.2% | 39.4% | 83.3% | 79.9% | 90.4% | 87.9% | – | – | – | – | – | – | – | – |
| Cc1c2c(nn1-c1ccc([N+](=O)[O-])cc1)C[C@@H]1CC[C@@H]3[C@H](CC[C@]4(C)C(=O)CC[C@@H]34)[C@@]1(C)C2 [5j, 1′-(4″-Nitrophenyl)-5′-methylpyrazolo[3′,4′:3,2]-5α-androst-17-one] | 36.8% | 16.0% | 83.5% | 71.7% | 47.4% | 29.4% | 46.5% | 14.4% | 73.0% | 42.8% | 94.8% | 44.6% | significantly higher | significantly higher | 6.7 ± 1.1 µM | > 30 µM | 10.4 ± 0.1 µM | 11.3 ± 2.8 µM | 13.5 ± 1.1 µM | 25.5 ± 2.3 µM |
